Where two headings read alike, the source gives them in different places.
Test system: M. mycetomatis genome strain MM55
Test: CLSI M38-A2 based in vitro susceptibility screening (XTT or resazurin), growth at fixed concentration
Assay type: cell-based, Madurella mycetomatis
Conditions: Madurella mycetomatis; for Percent fungal survival at 100 µM: read-out: Percentage survival at 100um, 100 uM A (second replicate column)
[1] = mean of three replicates, read-out: Percentage survival at 25um, 25 uM mean
[2] = replicate A, read-out: Percentage survival at 25um, 25 um A
[3] = replicate B, read-out: Percentage survival at 25um, 25 uM B
[4] = replicate C, read-out: Percentage survival at 25um, 25 uM C
[5] = mean of three replicates, read-out: Percentage survival at 100um, 100 uM mean
[6] = replicate 1, read-out: Percentage survival at 100um, 100 uM A (first replicate column)
[7] = replicate 3, read-out: Percentage survival at 100um, 100 uM A (third replicate column)
[8] = first replicate column, read-out: Percentage survival at 100um, 100 uM A
[9] = second replicate column, read-out: Percentage survival at 100um, 100 uM A
[10] = third replicate column, read-out: Percentage survival at 100um, 100 uM A
[11] = mean, read-out: Percentage survival at 25um, 25 uM mean
[12] = mean, read-out: Percentage survival at 100um, 100 uM mean
[13] = replicate (first column), read-out: Percentage survival at 100um, 100 uM A
[14] = replicate (second column), read-out: Percentage survival at 100um, 100 uM A
[15] = replicate (third column), read-out: Percentage survival at 100um, 100 uM A
[16] = mean of replicates, MM55, read-out: Percentage survival at 25um, 25 uM mean
[17] = replicate A, MM55, read-out: Percentage survival at 25um, 25 um A
[18] = replicate B, MM55, read-out: Percentage survival at 25um, 25 uM B
[19] = replicate C, MM55, read-out: Percentage survival at 25um, 25 uM C
[20] = mean of replicates, MM55, read-out: Percentage survival at 100um, 100 uM mean
[21] = replicate 1, MM55, read-out: Percentage survival at 100um, 100 uM A
[22] = replicate 2, MM55, read-out: Percentage survival at 100um, 100 uM A
[23] = replicate 3, MM55, read-out: Percentage survival at 100um, 100 uM A

Compound | activity at 25 µM [1] | activity at 25 µM [2] | activity at 25 µM [3] | activity at 25 µM [4] | activity at 100 µM [5] | activity at 100 µM [8] | activity at 100 µM [9] | activity at 100 µM [10] | activity at 25 µM [16] | activity at 25 µM [17] | activity at 25 µM [18] | activity at 25 µM [19] | activity at 100 µM [20] | activity at 100 µM [21] | activity at 100 µM [22] | activity at 100 µM [23] | other results
CS(=O)(=O)c1ccc(Oc2ccc(Cl)cc2)cc1 [MMV1634404] | 85.3% | 90% | 98% | 68% | 50.7% | – | – | – | – | – | – | – | – | – | – | – | activity at 100 µM [6]: 44.2%; Percent fungal survival at 100 µM (replicate 2): 49%; activity at 100 µM [7]: 59%
CCc1cc(CCCOc2c(C)cc(-c3noc(C(F)(F)F)n3)cc2C)on1 [MMV1634556] | 87% | 70.7% | 105% | 85.5% | 73% | 76.5% | 74.6% | 68% | – | – | – | – | – | – | – | – | –
COc1cc(C2C3=C(CC(C)(C)CC3=O)Nc3ccccc3N2C(C)=O)ccc1OCc1ccccc1 (stereo not shown) [MMV1634557] | – | 90.5% | 79.1% | 76.6% | – | – | – | – | – | – | – | – | – | – | – | – | activity at 25 µM [11]: 82.1%; activity at 100 µM [12]: 85.5%; activity at 100 µM [13]: 92.5%; activity at 100 µM [14]: 79.5%; activity at 100 µM [15]: 84.5%
Nc1nc(=O)c(Br)c(-c2cccc(Cl)c2)[nH]1 [MMV1645152] | 84.5% | 79.7% | 91.3% | 82.6% | 75.8% | 87.5% | 77.5% | 62.2% | – | – | – | – | – | – | – | – | –
CCc1nc2ccccn2c1C(=O)NCc1ccccc1 [MMV1663457] | – | – | – | – | – | – | – | – | – | – | – | – | – | – | – | – | activity at 25 µM (mean of three, M. mycetomatis MM55, read-out: Percentage survival at 25um, 25 uM mean): 64.2%; activity at 25 µM (replicate A, M. mycetomatis MM55, read-out: Percentage survival at 25um, 25 um A): 58%; activity at 25 µM (replicate B, M. mycetomatis MM55, read-out: Percentage survival at 25um, 25 uM B): 69.7%; activity at 25 µM (replicate C, M. mycetomatis MM55, read-out: Percentage survival at 25um, 25 uM C): 64.8%; activity at 100 µM (mean of three, M. mycetomatis MM55, read-out: Percentage survival at 100um, 100 uM mean): 64.3%; activity at 100 µM (replicate 1, M. mycetomatis MM55, read-out: Percentage survival at 100um, 100 uM A (first replicate column)): 52.2%; Percent fungal survival at 100 µM (replicate 2, M. mycetomatis MM55): 54%; activity at 100 µM (replicate 3, M. mycetomatis MM55, read-out: Percentage survival at 100um, 100 uM A (third replicate column)): 86.6%
O=C(NCc1ccc(F)cc1)c1c(O)c2ncccc2[nH]c1=O [MMV1782097] | – | – | – | – | – | – | – | – | 95.5% | 97.7% | 100% | 88.2% | 82.8% | 86.6% | 79.1% | 82.7% | –
CCCCN1C[C@H](O)[C@@H](O)[C@H](O)[C@H]1CO [MMV1782098] | – | – | – | – | – | – | – | – | 95.7% | 96.4% | 111% | 79.8% | 68% | 94.4% | 27.4% | 82.2% | –
COc1cc(C(C)(C)CCCC(C)C)cc(OC)c1OC [MMV1782102] | 78.4% | 88.5% | 83% | 63.5% | 83.9% | 90.3% | 86% | 75.5% | – | – | – | – | – | – | – | – | –
COCCn1cnc2c(=O)[nH]c(Nc3ccccc3)nc21 [MMV1782103] | – | – | – | – | – | – | – | – | 86.8% | 90% | 97.7% | 72.6% | 75.1% | 87.4% | 60.4% | 77.5% | –
NC(=O)c1nccn([C@@H]2O[C@H](CO)[C@@H](O)[C@H]2O)c1=O [MMV1782104] | 99.8% | 102% | 107% | 90.3% | 86.1% | 97.1% | 97.7% | 63.4% | – | – | – | – | – | – | – | – | –
O=c1oc2ccc(Br)cc2cc1CSc1ncc[nH]1 [MMV1782105] | 79.9% | 77.1% | 83.9% | 78.6% | 63.6% | 62.8% | 59.4% | 68.5% | – | – | – | – | – | – | – | – | –
CCc1cc(CCC(=O)Nc2ccccc2O)c(=O)[nH]c1C [MMV1782106] | 91.9% | 84.9% | 85.4% | 105% | 83.9% | 83.7% | 82.9% | 85.1% | – | – | – | – | – | – | – | – | –
O=c1[nH]c(=O)n(Cc2cccc(Oc3ccccc3)c2)cc1Nc1ccccc1 [MMV1782107] | 91.7% | 75.5% | 83.9% | 116% | 71.8% | 90.6% | 77.9% | 47.1% | – | – | – | – | – | – | – | – | –
CCCCc1ccc(S(=O)(=O)Nc2cc(C)on2)cc1 [MMV1782108] | – | 90.5% | 80.2% | 87.6% | – | – | – | – | – | – | – | – | – | – | – | – | activity at 25 µM [11]: 86.1%; activity at 100 µM [12]: 82.9%; activity at 100 µM [13]: 79.8%; activity at 100 µM [14]: 82.7%; activity at 100 µM [15]: 86.3%
O=C(N[C@H](Cc1cccc2ccccc12)C(=O)NCCc1c[nH]cn1)C1Cc2ccccc2C1 [MMV1782109] | – | 88.1% | 81.3% | 72.6% | – | – | – | – | – | – | – | – | – | – | – | – | activity at 25 µM [11]: 80.7%; activity at 100 µM [12]: 67%; activity at 100 µM [13]: 69.9%; activity at 100 µM [14]: 67.6%; activity at 100 µM [15]: 63.4%
O=C(CCc1ccc2c(c1)OCO2)NCc1ccc(-c2ccccc2F)cc1 [MMV1782110] | – | 102% | 62.1% | 71.9% | – | – | – | – | – | – | – | – | – | – | – | – | activity at 25 µM [11]: 78.7%; activity at 100 µM [12]: 77.4%; activity at 100 µM [13]: 79%; activity at 100 µM [14]: 73.6%; activity at 100 µM [15]: 79.5%
CC(C)C(=O)N[C@H]1[C@H]([C@H](O)[C@H](O)CO)OC(C(=O)O)=C[C@@H]1N=[N+]=[N-] [MMV1782111] | – | – | – | – | – | – | – | – | 95.4% | 71.1% | 133% | 82.3% | 57.6% | 71% | 27.4% | 74.4% | –
CCOC(=O)/C=C/[C@H](C[C@@H]1CCNC1=O)NC(=O)[C@H](CC)n1cccc(NC(=O)c2cc(C)on2)c1=O [MMV1782112] | 92.1% | 76.9% | 89.6% | 110% | 68.4% | 81.9% | 76.6% | 46.5% | – | – | – | – | – | – | – | – | –
CCCC1(C2CC2)c2cc(Cl)ccc2NC(=O)N1C (stereo not shown) [MMV1782113] | – | – | – | – | – | – | – | – | 68.5% | 67.5% | 76.8% | 61.2% | 56.1% | 52.9% | 56.4% | 58.9% | –
O=C(NN1C(=O)[C@@H]2C3C=CC([C@H]4C[C@@H]34)[C@@H]2C1=O)c1ccc(C(F)(F)F)cc1 [MMV1782114] | 90.1% | 95.2% | 94.5% | 80.6% | 84.5% | – | – | – | – | – | – | – | – | – | – | – | activity at 100 µM [6]: 90%; Percent fungal survival at 100 µM (replicate 2): 78.4%; activity at 100 µM [7]: 85%
COc1ccc2sc3c(c2c1)NC(C)CNC3=O (stereo not shown) [MMV1782115] | 53.1% | 57.6% | 74.6% | 27.1% | -0.834% | – | – | – | – | – | – | – | – | – | – | – | activity at 100 µM [6]: -3.17%; Percent fungal survival at 100 µM (replicate 2): -0.401%; activity at 100 µM [7]: 1.07%
CN1C(=O)C(c2ccccc2)C(=O)N(c2ccccc2)c2cc(C(F)(F)F)ccc21 (stereo not shown) [MMV1782208] | – | – | – | – | – | – | – | – | 99.7% | 120% | 99.1% | 80.3% | 90.1% | 94.2% | 97.9% | 78.1% | –
COc1ccc(C(C)(C)C)cc1NC(=O)C(=O)c1ccc(OCCN2CCOCC2)c2ccccc12 [MMV1782209] | – | – | – | – | – | – | – | – | 96.3% | 102% | 99.5% | 87.2% | 91.3% | 102% | 86% | 85.7% | –

— paper PMC8815882, “Screening the pandemic response box identified benzimidazole carbamates, Olorofim and ravuconazole as promising drug candidates for the treatment of eumycetoma” (PLoS Neglected Tropical Diseases, 2022)
